Measurements taken from ChEMBL document CHEMBL1949607, “p-Terphenyl and diterpenoid metabolites from endophytic Aspergillus sp. YXf3” (J Nat Prod, 2012).
pIC50: −log10 of the molar value.

Assay: Inhibition of viral neuraminidase after 20 mins by fluorescence assay

pIC50	SMILES
6.85	CCOC(=O)C1=C[C@@H](OC(CC)CC)[C@H](NC(C)=O)[C@@H](N)C1 [OSELTAMIVIR]
< 4.52	C=Cc1c(C)ccc2c1C(=O)[C@H](O)[C@H]1C(C)(C)CC[C@@H](O)[C@]21C [ASPERGILOID C]
< 4.52	COc1ccc(-c2cc(OC)c3c(oc4cc(O)c(O)cc43)c2OC)cc1 [CANDIDUSIN C]
5.04	COc1cc(-c2ccc(O)cc2)c(OC)c(O)c1-c1ccc(O)c(O)c1
< 4.52	COc1cc(-c2ccc(O)cc2)c(OC)c(O)c1-c1ccc(O)cc1 [TERPHENYLLIN]
< 4.52	COc1cc(-c2ccccc2)c(OC)c(O)c1-c1ccc(O)c(O)c1
< 4.52	CO[C@]12OC[C@@H](O)c3c(C)ccc(c31)C1=C(C2=O)C(C)(C)CCC1 (racemic)
< 4.52	COc1c(-c2ccccc2)cc(O)c(-c2ccc(O)cc2)c1O
< 4.52	COc1cc2oc3c(OC)c(-c4ccc(O)cc4)cc(OC)c3c2cc1OC

The remaining lines, values behind:

SMILES	pIC50
COc1cc(-c2ccccc2)c(OC)c(O)c1-c1ccc(O)cc1	5.36
COc1c(-c2ccc(O)cc2)cc(OC)c2c1oc1cc(O)c(O)cc12 [CANDIDUSIN A]	< 4.52
COc1c(-c2ccc(O)cc2)cc(O)c(-c2ccc(O)cc2)c1O	< 4.52
COc1cc(-c2ccc(O)cc2)c(OC)c(O)c1C1=CC(=O)OC1CC(=O)O (stereo unspecified) [TERPHENOLIDE]	5.24
COc1c(-c2ccccc2)cc(OC)c2c1oc1cc(O)c(O)cc12	5.04
CO[C@@H]1CO[C@]2(OC)C(=O)C3=C(CCCC3(C)C)c3ccc(C)c1c32 (racemic)	< 4.52
C=C[C@@]1(C)CC[C@H]2C(=C[C@H](O)[C@H]3C(C)(C)CC[C@@H](O)[C@]23C)[C@H]1O (relative stereo)	< 4.52
